Test results: paper PMC10257182, “Discovery of senolytics using machine learning” (Nature Communications, 2023)
Values joined by “and” are separate entries in the source; they are usually repeats but may differ in a detail not shown here. Identical values can stand only once.

Columns and labels:
Type in all cases: cell-based, human
[1] = test system: senescent IMR90 ER:RAS cells (4-OHT-induced); assay: Nuclei count (Hoechst, high content imaging) senolytic assay, oncogene-induced senescence (OIS) model, senescent cells; conditions: for Mean % Cell Survival: mean n=3 (Fig 3C)
Text: To test for senolytic activity, we compared the effect of each compound on the total cell number (automated high content image-based analysis of total number of nuclei per well) in non-senescent and senescent IMR90 ER:RAS cultures treated with the top hits from the computational screen (Figs. 2e and 3a–d and Supplementary Fig. 4a–c). The drop in cell number compared to untreated controls is indicated by the nuclei count and reflects cell death[13],[15]. As positive control, we employed ouabain, a cardiac glycoside with well characterised senolytic activity.
We performed experimental validation of the compounds with z-score > 8 (Fig. 2e). […] We employed two cellular models of senescence: one of OIS and a second one of TIS. For the OIS case, we utilised IMR90 ER:RAS cells with 4-OHT at 100 nM. […] For the TIS model, we used A549 cells with etoposide at 100 μM. The exposure of the cells to etoposide lasted 48 h, after which period the cells were cultivated for a further three days with normal media.
IMR90 (CCL-186) human foetal lung fibroblasts and A549 (CCL-185) human lung adenocarcinoma cells were obtained from the American Type Culture Collection (ATCC, Manassas, VA). The cell lines were confirmed to be mycoplasma negative (Lonza MycoAlert, cat #LT07-118). IMR90 ER:RAS is a derivative of IMR90 cells expressing a switchable version of oncogenic H-Ras[84]. IMR90 ER:RAS and A549 cells were maintained in Dulbecco’s Modified Eagle Medium (DMEM, ThermoFisher) supplemented with foetal bovine serum (10%), L-glutamine (2 mM, ThermoFisher), and antibiotic-antimycotic solution (1%, ThermoFisher) and incubated under standard tissue culture conditions (37 °C and 5% CO2). For induction of the senescent phenotype, IMR90-ER:RAS cells were cultured in hydroxytamoxifen (4-OHT) (Sigma) added media at 100 nM final concentration. IMR90 were kept in culture for over 27 passages for replicative senescence. Cells were tested for mycoplasma on a regular basis.
Cells were seeded (50 μL per well) into 384-well plates (IMR90 ER:RAS cells in Nunc Optical Bottom Polybase Microplates [#142761, Thermo Scientific, Rochester, NY] and A549 cells in CELLSTAR Cell Culture Microplates [#781091, Greiner Bio-One, Kremsmünster, Austria]). Cells were incubated under standard tissue culture conditions for 24 h before the addition of compounds. Passage 14 IMR90 ER:RAS cells were seeded at 1300 cells per well in the control condition, and at 1600 cells per well in the senescent case. Passage 34 A549 cells were seeded at 7000 cells per well in the control condition, and at 10,000 cells per well in the senescent case.
Dose response plates were prepared with a DMSO control and a 10-point […] concentration range, and added to the compounds using a D300e digital dispenser (Tecan Trading AG, Switzerland) at a final concentration of between 10 μM and 10 nM. Every screened condition was carried out in triplicate. After 72 h of incubation with exposure to the compounds, cells were fixed by the addition of an equal volume of formaldehyde (8%, 50 μL; #BP531-500, Fisher Bioreagents, Fisher Scientific, Loughborough, Leicestershire) to the existing media, incubated at room temperature (30 min), and washed three times in phosphate-buffered saline (PBS). Cells were then permeabilised in Triton-X100 (0.1%, 50 μL) and incubated at room temperature (30 min) followed by three more washes with PBS.
Cells were stained with Hoechst 33342 for nuclei count (excitation/emission wavelength at 387/447 […], DAPI channel, original concentration at 10 mg/ml, final concentration at 2 μg/ml; H1399, Molecular Probes, Eugene, OR). The staining solution was prepared in bovine serum albumin solution (10%). The staining solution was added to each well (30 μL) and incubated in the dark at room temperature (30 min), followed by three washes with PBS and no final aspiration. Plates were foil sealed.

[2] = test system: non-senescent control A549 cells; assay: Nuclei count senolytic assay, TIS model, non-senescent control cells; conditions: Control cells, mean
Summary of the method: (§1)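 Nuclei counted by Hoechst 33342 imaging after fixation, following 72 h treatment with compound at 10 nM–10 μM (10-point […], triplicates). Targets were control A549 cells and A549 rendered senescent by 48 h 100 μM etoposide plus 3 days recovery.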

[3] = test system: senescent A549 cells (etoposide-induced); assay: Nuclei count senolytic assay, therapy-induced senescence (TIS) model, senescent cells; conditions: Senescent cells, mean
Summary of the method: as §1

C=Cc1c(C)c2cc3nc(cc4[nH]c(cc5nc(cc1[nH]2)C(C)=C5CCC(=O)O)c(CCC(=O)OC)c4C)[C@@]1(C)C3=CC=C(C(=O)OC)[C@H]1C(=O)OC [Verteporfin, verteporfin, reference compound]
% Cell Survival ([1]; Senescent cells, log (dose) [M] -5, individual replicates, SUP FIG 4C): 93.9435% and 91.1111% and 111.269%
% Cell Survival ([1]; Senescent cells, log (dose) [M] -5.33, individual replicates, SUP FIG 4C): 81.5612% and 99.085% and 87.8238%
% Cell Survival ([1]; Senescent cells, log (dose) [M] -5.66, individual replicates, SUP FIG 4C): 114.536% and 91.2418% and 98.8342%
% Cell Survival ([1]; Senescent cells, log (dose) [M] -6, individual replicates, SUP FIG 4C): 68.7752% and 100.915% and 109.974%
% Cell Survival ([1]; Senescent cells, log (dose) [M] -6.33, individual replicates, SUP FIG 4C): 85.8681% and 55.5556% and 108.549%
% Cell Survival ([1]; Senescent cells, log (dose) [M] -6.66, individual replicates, SUP FIG 4C): 84.253% and 107.32% and 95.2073%
% Cell Survival ([1]; Senescent cells, log (dose) [M] -7, individual replicates, SUP FIG 4C): 86.541% and 87.8431% and 90.544%
% Cell Survival ([1]; Senescent cells, log (dose) [M] -7.33, individual replicates, SUP FIG 4C): 95.5585% and 120.915% and 93.9119%
% Cell Survival ([1]; Senescent cells, log (dose) [M] -7.66, individual replicates, SUP FIG 4C): 98.3849% and 123.268% and 87.8238%
% Cell Survival ([1]; Senescent cells, log (dose) [M] -8, individual replicates, SUP FIG 4C): 86.541% and 113.464% and 76.6839%
Mean % Cell Survival ([1]; Senescent, log (dose) [M] -5, 72 h): 98.7747%
Mean % Cell Survival ([1]; Senescent, log (dose) [M] -5.33, 72 h): 89.49%
Mean % Cell Survival ([1]; Senescent, log (dose) [M] -5.66, 72 h): 101.537%
Mean % Cell Survival ([1]; Senescent, log (dose) [M] -6, 72 h): 93.2215%
Mean % Cell Survival ([1]; Senescent, log (dose) [M] -6.33, 72 h): 83.3243%
Mean % Cell Survival ([1]; Senescent, log (dose) [M] -6.66, 72 h): 95.5935%
Mean % Cell Survival ([1]; Senescent, log (dose) [M] -7, 72 h): 88.3094%
Mean % Cell Survival ([1]; Senescent, log (dose) [M] -7.33, 72 h): 103.462%
Mean % Cell Survival ([1]; Senescent, log (dose) [M] -7.66, 72 h): 103.159%
Mean % Cell Survival ([1]; Senescent, log (dose) [M] -8, 72 h): 92.2297%
% Cell Survival ([1]; Senescent, log (dose) [M] -5): 113.825% and 103.66% and 137.931%
% Cell Survival ([1]; Senescent, log (dose) [M] -5.33): 79.9635% and 100.131% and 115.557%
% Cell Survival ([1]; Senescent, log (dose) [M] -5.66): 102.923% and 109.085% and 134.403%
% Cell Survival ([1]; Senescent, log (dose) [M] -6): 99.1474% and 91.7647% and 157.418%
% Cell Survival ([1]; Senescent, log (dose) [M] -6.33): 98.8429% and 106.993% and 136.808%
% Cell Survival ([1]; Senescent, log (dose) [M] -6.66): 92.57% and 116.536% and 113.873%
% Cell Survival ([1]; Senescent, log (dose) [M] -7): 103.898% and 73.5294% and 123.657%
% Cell Survival ([1]; Senescent, log (dose) [M] -7.33): 62.363% and 86.2092% and 118.605%
% Cell Survival ([1]; Senescent, log (dose) [M] -7.66): 100.061% and 91.4379% and 129.27%
% Cell Survival ([1]; Senescent, log (dose) [M] -8): 96.6504% and 87.3856% and 116.84%
Mean % Cell Survival ([2]; log (dose) [M] -5): 113.771%
Mean % Cell Survival ([2]; log (dose) [M] -5.33): 108.79%
Mean % Cell Survival ([2]; log (dose) [M] -5.66): 94.7872%
Mean % Cell Survival ([2]; log (dose) [M] -6): 92.365%
Mean % Cell Survival ([2]; log (dose) [M] -6.33): 96.0501%
Mean % Cell Survival ([2]; log (dose) [M] -6.66): 101.194%
Mean % Cell Survival ([2]; log (dose) [M] -7): 90.846%
Mean % Cell Survival ([2]; log (dose) [M] -7.33): 108.359%
Mean % Cell Survival ([2]; log (dose) [M] -7.66): 100.589%
Mean % Cell Survival ([2]; log (dose) [M] -8): 97.9379%
Mean % Cell Survival ([3]; log (dose) [M] -5): 118.472%
Mean % Cell Survival ([3]; log (dose) [M] -5.33): 98.5505%
Mean % Cell Survival ([3]; log (dose) [M] -5.66): 115.47%
Mean % Cell Survival ([3]; log (dose) [M] -6): 116.11%
Mean % Cell Survival ([3]; log (dose) [M] -6.33): 114.215%
Mean % Cell Survival ([3]; log (dose) [M] -6.66): 107.66%
Mean % Cell Survival ([3]; log (dose) [M] -7): 100.361%
Mean % Cell Survival ([3]; log (dose) [M] -7.33): 89.0589%
Mean % Cell Survival ([3]; log (dose) [M] -7.66): 106.923%
Mean % Cell Survival ([3]; log (dose) [M] -8): 100.292%
